{"source": "patent US7138361B2", "about": "“Herbicidal heterocycles” (E. I. du Pont de Nemours and Company, priority 2000, dated 2006)", "format_in_all_cases": "in vivo", "key": {"[1]": {"tested_on": "wheat (Triticum aestivum)", "test": "Test B postemergence", "settings": "Rate 500 g/ha, scale 0 to 100, 0 is no effect, 100 is complete control, 13 to 15 days", "how_it_was_run": "(§1)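 Ratings on a 0 to 100 visual scale (100 complete control) compare treated plants with controls 13 to 15 days after application. Treatments were pre- or postemergence sprays of compound in non-phytotoxic solvent with surfactant.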"}, "[2]": {"tested_on": "barnyardgrass (Echinochloa crus-galli)", "test": "Test B postemergence", "settings": "13 to 15 days", "how_it_was_run": "as §1"}, "corn (Zea mays) [3]": {"tested_on": "corn (Zea mays)", "test": "Test B postemergence", "settings": "13 to 15 days", "how_it_was_run": "as §1"}, "wild oat (Avena fatua)": {"tested_on": "wild oat (Avena fatua)", "test": "Test B postemergence", "settings": "Rate 500 g/ha, scale 0 to 100, 0 is no effect, 100 is complete control, 13 to 15 days", "how_it_was_run": "as §1"}, "Sunflower": {"tested_on": "Sunflower", "test": "Test C preemergence", "settings": "Rate 250 g/ha, scale 0 to 100, 0 no effect, 100 complete control"}, "[4]": {"tested_on": "duck salad (Heteranthera limosa)", "test": "Test C flooded paddy test", "settings": "for Ducksalad plant response rating: Flooded Paddy, scale 0 to 100, 0 no effect, 100 complete control; for Plant response rating, Ducksalad: flooded paddy test, scale 0 to 100 (0 no effect, 100 complete control)", "how_it_was_run": "(§2)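 Each species was cultivated to 2 leaves in flooded paddy pots, then treated. After a greenhouse period of 12–14 days, the plants were scored visually relative to controls from 0 (no effect) to 100 (complete control).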"}, "rice (Oryza saliva)": {"tested_on": "rice (Oryza saliva)", "test": "Test C flooded paddy test", "settings": "for Rice plant response rating: Flooded Paddy, scale 0 to 100, 0 no effect, 100 complete control; for Plant response rating, Rice: flooded paddy test, scale 0 to 100 (0 no effect, 100 complete control)", "how_it_was_run": "as §2"}, "[5]": {"tested_on": "barnyardgrass (Echinochloa crus-galli)", "test": "Test C flooded paddy test", "settings": "for Barnyardgrass plant response rating: Flooded Paddy, scale 0 to 100, 0 no effect, 100 complete control; for Plant response rating, Barnyardgrass: flooded paddy test, scale 0 to 100 (0 no effect, 100 complete control)", "how_it_was_run": "as §2"}, "[6]": {"tested_on": "smallflower flatsedge (Cyperus difformis)", "test": "Test C flooded paddy test", "settings": "for Flatsedge plant response rating: Flooded Paddy, scale 0 to 100, 0 no effect, 100 complete control; for Plant response rating, Flatsedge: flooded paddy test, scale 0 to 100 (0 no effect, 100 complete control)", "how_it_was_run": "as §2"}, "[7]": {"tested_on": "yellow nutsedge (Cyperus esculentus)", "test": "Test C preemergence", "how_it_was_run": "(§3)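 Seeds are planted and treated before emergence; for the postemergence test, plants at 1- to 4-leaf stage (2–18 cm) receive the same formulation, a solvent blend containing surfactant. Plants stay in the greenhouse 12–14 days, then response is scored visually from 0 (none) to 100 (complete control).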"}, "kochia (Kochia scoparia)": {"tested_on": "kochia (Kochia scoparia)", "test": "Test C preemergence", "how_it_was_run": "as §3"}, "[8]": {"tested_on": "pigweed (Amaranthus retroflexus)", "test": "Test C preemergence", "how_it_was_run": "as §3"}, "Nightshade [9]": {"tested_on": "Nightshade", "test": "Test C preemergence"}, "[10]": {"tested_on": "lambsquarters (Chenopodium album)", "test": "Test C preemergence", "how_it_was_run": "as §3"}, "[11]": {"tested_on": "woolly cupgrass (Eriochloa villosa)", "test": "Test C preemergence", "how_it_was_run": "as §3"}, "corn (Zea mays) [12]": {"tested_on": "corn (Zea mays)", "test": "Test C preemergence", "how_it_was_run": "as §3"}, "soybean (Glycine max)": {"tested_on": "soybean (Glycine max)", "test": "Test C preemergence", "how_it_was_run": "as §3"}, "[13]": {"tested_on": "johnsongrass (Sorghum halepense)", "test": "Test C preemergence", "how_it_was_run": "as §3"}, "Nightshade [14]": {"tested_on": "Nightshade", "test": "Test C preemergence", "settings": "Rate 500 g/ha, visual evaluation after 12 to 14 days"}, "[15]": {"settings": "Rate 125 g/ha, scale 0 (no effect) to 100 (complete control)"}, "[16]": {"settings": "Rate 500 g/ha, scale 0 to 100, 0 is no effect, 100 is complete control"}, "[17]": {"settings": "Rate 125 g/ha, scale 0 to 100, 0 no effect, 100 complete control"}, "[18]": {"settings": "preemergence, Rate 62 g/ha, scale 0 to 100"}, "[19]": {"settings": "preemergence, Rate 500 g/ha, visual evaluation after 12 to 14 days"}, "[20]": {"settings": "preemergence, Rate 250 g/ha, scale 0 to 100, 0 no effect, 100 complete control"}}, "data": [{"molecule": "CCCC(C)c1ccn(C2CCN(c3cccc(OC)c3)C2=O)n1", "note": "(centres unmarked) [Compound 99]", "values": [{"measurement": "Plant response rating, Wheat", "setting": "[1]", "value": 0}, {"measurement": "Plant response rating, Barnyardgrass", "setting": "[2]; [15]", "value": 0}, {"measurement": "Plant response rating, Barnyardgrass", "setting": "[2]; [16]", "value": 0}, {"measurement": "Plant response rating, Corn", "setting": "corn (Zea mays) [3]; [15]", "value": 0}, {"measurement": "Plant response rating, Corn", "setting": "corn (Zea mays) [3]; [16]", "value": 0}, {"measurement": "Plant response rating, Wild Oat", "setting": "wild oat (Avena fatua)", "value": 0}, {"measurement": "Plant response rating, Sunflower", "setting": "Sunflower", "value": 0}, {"measurement": "Ducksalad plant response rating", "setting": "[4]; Rate 250 g/ha", "value": 0}, {"measurement": "Ducksalad plant response rating", "setting": "[4]; Rate 500 g/ha", "value": 0}, {"measurement": "Plant response rating, Ducksalad", "setting": "[4]; Rate 62 g/ha", "value": 0}, {"measurement": "Plant response rating, Ducksalad", "setting": "[4]; Rate 125 g/ha", "value": 0}, {"measurement": "Rice plant response rating", "setting": "rice (Oryza saliva); Rate 250 g/ha", "value": 50}, {"measurement": "Rice plant response rating", "setting": "rice (Oryza saliva); Rate 500 g/ha", "value": 80}, {"measurement": "Plant response rating, Rice", "setting": "rice (Oryza saliva); Rate 62 g/ha", "value": 0}, {"measurement": "Plant response rating, Rice", "setting": "rice (Oryza saliva); Rate 125 g/ha", "value": 50}, {"measurement": "Barnyardgrass plant response rating", "setting": "[5]; Rate 250 g/ha", "value": 20}, {"measurement": "Barnyardgrass plant response rating", "setting": "[5]; Rate 500 g/ha", "value": 60}, {"measurement": "Plant response rating, Barnyardgrass", "setting": "[5]; Rate 62 g/ha", "value": 0}, {"measurement": "Plant response rating, Barnyardgrass", "setting": "[5]; Rate 125 g/ha", "value": 0}, {"measurement": "Flatsedge plant response rating", "setting": "[6]; Rate 250 g/ha", "value": 100}, {"measurement": "Flatsedge plant response rating", "setting": "[6]; Rate 500 g/ha", "value": 100}, {"measurement": "Plant response rating, Flatsedge", "setting": "[6]; Rate 62 g/ha", "value": 0}, {"measurement": "Plant response rating, Flatsedge", "setting": "[6]; Rate 125 g/ha", "value": 90}, {"measurement": "Plant response rating, Nutsedge", "setting": "[7]; [17]", "value": 0}, {"measurement": "Plant response rating, Nutsedge", "setting": "[7]; [18]", "value": 0}, {"measurement": "Plant response rating (0 to 100), Nutsedge", "setting": "[7]; [19]", "value": 90}, {"measurement": "Plant response rating, Nutsedge", "setting": "[7]; [20]", "value": 0}, {"measurement": "Plant response rating, Kochia", "setting": "kochia (Kochia scoparia); [17]", "value": 90}, {"measurement": "Plant response rating, Kochia", "setting": "kochia (Kochia scoparia); [18]", "value": 80}, {"measurement": "Plant response rating (0 to 100), Kochia", "setting": "kochia (Kochia scoparia); [19]", "value": 100}, {"measurement": "Plant response rating, Kochia", "setting": "kochia (Kochia scoparia); [20]", "value": 90}, {"measurement": "Plant response rating, Pigweed", "setting": "[8]; [17]", "value": 90}, {"measurement": "Plant response rating, Pigweed", "setting": "[8]; [18]", "value": 0}, {"measurement": "Plant response rating (0 to 100), Pigweed", "setting": "[8]; [19]", "value": 70}, {"measurement": "Plant response rating, Pigweed", "setting": "[8]; [20]", "value": 20}, {"measurement": "Plant response rating, Nightshade", "setting": "Nightshade [9]; Rate 62 g/ha, scale 0 to 100", "value": 0}, {"measurement": "Plant response rating, Nightshade", "setting": "Nightshade [9]; [17]", "value": 0}, {"measurement": "Plant response rating, Nightshade", "setting": "Nightshade [9]; Rate 250 g/ha, scale 0 to 100, 0 no effect, 100 complete control", "value": 0}, {"measurement": "Plant response rating, Lambsquarters", "setting": "[10]; [17]", "value": 100}, {"measurement": "Plant response rating, Lambsquarters", "setting": "[10]; [18]", "value": 100}, {"measurement": "Plant response rating (0 to 100), Lambsquarters", "setting": "[10]; [19]", "value": 100}, {"measurement": "Plant response rating, Lambsquarters", "setting": "[10]; [20]", "value": 100}, {"measurement": "Plant response rating, Cupgrass, Woolly", "setting": "[11]; [17]", "value": 0}, {"measurement": "Plant response rating, Cupgrass, Woolly", "setting": "[11]; [18]", "value": 0}, {"measurement": "Plant response rating (0 to 100), Cupgrass, Woolly", "setting": "[11]; [19]", "value": 100}, {"measurement": "Plant response rating, Cupgrass, Woolly", "setting": "[11]; [20]", "value": 10}, {"measurement": "Plant response rating, Corn", "setting": "corn (Zea mays) [12]; [17]", "value": 0}, {"measurement": "Plant response rating, Corn", "setting": "corn (Zea mays) [12]; [18]", "value": 0}, {"measurement": "Plant response rating (0 to 100), Corn", "setting": "corn (Zea mays) [12]; [19]", "value": 20}, {"measurement": "Plant response rating, Corn", "setting": "corn (Zea mays) [12]; [20]", "value": 0}, {"measurement": "Plant response rating, Soybean", "setting": "soybean (Glycine max); [17]", "value": 0}, {"measurement": "Plant response rating, Soybean", "setting": "soybean (Glycine max); [18]", "value": 0}, {"measurement": "Plant response rating (0 to 100), Soybean", "setting": "soybean (Glycine max); [19]", "value": 0}, {"measurement": "Plant response rating, Soybean", "setting": "soybean (Glycine max); [20]", "value": 0}, {"measurement": "Plant response rating, Johnsongrass", "setting": "[13]; [17]", "value": 0}, {"measurement": "Plant response rating, Johnsongrass", "setting": "[13]; [18]", "value": 0}, {"measurement": "Plant response rating (0 to 100), Johnsongrass", "setting": "[13]; [19]", "value": 90}, {"measurement": "Plant response rating, Johnsongrass", "setting": "[13]; [20]", "value": 0}, {"measurement": "Plant response rating (0 to 100), Nightshade", "setting": "Nightshade [14]", "value": 10}]}]}
